Data: patent US4734416A, “Pharmaceutically useful carbostyril derivatives” (Otsuka Pharmaceutical Co., Ltd., priority 1978, dated 1988)
Counter-ions that a name gives are not always drawn.

Experiments:
[1] = molecular target: T1, enucleated ileum of a guinea pig (Cavia porcellus, UniProt P31389); assay: Antihistamine activity test in vitro (enucleated guinea pig ileum, histamine retraction, pA2 by Van Rossam method); details: 10^-6 g/ml test compound, 5 minutes before histamine, 36° C.
T1 construct: the tissue of ileum is cut to a length of 2.5 to 3.0 cm and suspended in an organ bath; from tissue; host or cells: isolated ileum from the ileocecal region of male guinea pig
Protocol: As to the test method for determining antihistamine activity of a compound in vitro, a method of using an enucleated ileum of a guinea pig is generally accepted.
A male guinea pig having 300 to 500 g body weight is killed by blood letting. An ileum having a length of 15 cm being enculeated from the ileocecal region is dipped into Tyrode's solution (which is prepared from […], 0.2 g of KCl, 0.2 g of CaCl2, 1.0 g of glucose, 1.0 g of NaHCO3, 0.065 g of NaHPO4.2H2 O and 0.2135 g of MgCl2.6H2 O to make 1000 ml in total volume by adding water). Then the tissue of ileum is cut to a length of 2.5 to 3.0 cm and suspended in an organ bath filled with 30 ml of Tyrode's solution. The organ bath is kept at a temperature of 36° C. and a mixed gas consisting of 5% of CO2 and 95% of O2 is blown into the bath. 10 Minutes after the blowing, 10^-6 M of histamine is added to the bath to examine the sensitivity of the tissue and a reaction curve (control) with respect to the dosage of histamine is obtained. After the dosage of histamine-reaction curve (control) becomes constant, 10^-6 g/ml of a compound to be tested is added to the bath and further histamine is added 5 minutes later to obtain a dosage-reaction curve. Retraction of the ileum is recorded on a pen-recorder through an isotonic transducer [TD-112S manufactured by Nihon Koden]. Antihistamine activity of the test compound is determined as pA2 value by the "Van Rossam" method [J. M. Van Rossam; Arch. Inst. Pharmacodyn., 143, 299 (1963)] wherein the maximum retraction of ileum caused by histamine shown in the control curve is 100%.

[2] = Halothane anesthesia increasing activity (righting reflex); assay type: in vivo, mouse (male, ddy-strain); details: oral; for Time (minutes) between introduction of anesthesia and waking: 8 mg/kg, 1 hour before 4% Halothane
Protocol: Male mice of ddy-strain having about 20 g body weight are used. One test group consists of 10 mice. An aqueous Gummi Arabicum suspension of test compound (80 mg of a compound to be tested and 1 g of Gummi Arabicum/100 ml of physiological NaCl solution) is administered orally to each mouse at the dosage of 8 mg of test compound/kg body. One hour after the administration, each mouse is placed in a gas respiration chamber (13×13×24 cm) and oxygen gas containing 4% of Halothane [2-bromo-2-chloro-1,1,1-trifluoroethane] is blown into the chamber at the velocity of 2 l/min for 3 minutes. A mouse anaesthetized is taken out from the chamber and the time between the introduction of anesthesia to waking is measured by righting reflex as the index. To mice of the control group, 1% Gummi Arabicum aqueous physiological solution is orally administered at the dosage of 0.1 ml/10 g body. [Reference: M. J. Turnbull and J. W. Watkins: Br. J. Pharmac., 58, 27-35 (1976)]
Same procedures as mentioned in (II)-(A) are employed, except that the amount of test compound to be orally administered is changed in 4 steps at the dosage of 0.5 mg/kg, 1 mg/kg, 2 mg/kg and 4 mg/kg respectively to measure the relationship between the dosage and degree of strength of anesthesia increasing activity.

T1 sequence (P31389 whole entry): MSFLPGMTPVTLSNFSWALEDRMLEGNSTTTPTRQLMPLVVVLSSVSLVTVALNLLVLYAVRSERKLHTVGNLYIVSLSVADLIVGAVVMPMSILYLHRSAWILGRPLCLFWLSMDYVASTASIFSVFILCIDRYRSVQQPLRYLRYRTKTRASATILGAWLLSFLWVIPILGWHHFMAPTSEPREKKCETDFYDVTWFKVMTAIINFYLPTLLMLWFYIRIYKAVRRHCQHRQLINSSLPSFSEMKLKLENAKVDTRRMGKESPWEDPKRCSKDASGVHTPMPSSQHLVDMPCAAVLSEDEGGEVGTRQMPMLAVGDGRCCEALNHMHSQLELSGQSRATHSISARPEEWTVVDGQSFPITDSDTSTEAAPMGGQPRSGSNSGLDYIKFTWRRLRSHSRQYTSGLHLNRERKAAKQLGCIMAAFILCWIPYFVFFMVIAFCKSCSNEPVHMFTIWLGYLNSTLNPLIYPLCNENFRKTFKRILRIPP

Compound | Kb [1] [nM] | Time (minutes) between introduction of anesthesia and waking [2] [min] | further results
O=C1CCc2c(cccc2OCC(O)CN2CCN(c3ccccc3)CC2)N1 (stereo not shown) [Compound 1, 5-[2-Hydroxy-3-(4-phenylpiperazinyl)propoxy]-3,4-dihydrocarbostyril monohydrochloride] | 8.32 | 9.3 ± 4.9 | 
O=C1CCc2ccc(OCC(O)CN3CCN(c4ccccc4)CC3)cc2N1 (stereo not shown) [Compound 2, 7-[2-Hydroxy-3-(4-phenylpiperazinyl)propoxy]-3,4-dihydrocarbostyril monohydrochloride] | 17.8 | 11.7 ± 5.6 | 
O=C1CCc2c(OCC(O)CN3CCN(c4ccc(Cl)cc4)CC3)ccc(Cl)c2N1 (stereo not shown) [Compound 3, 8-Chloro-5-{2-hydroxy-3-[4-(4-chlorophenyl)piperazinyl]propoxy}-3,4-dihydrocarbostyril monohydrochloride] | 4.9 | 7.9 ± 3.4 | 
O=C1CCc2c(c(Cl)cc(Cl)c2OCC(O)CN2CCN(c3ccccc3)CC2)N1 (stereo not shown) [Compound 4, 6,8-Dichloro-5-[2-hydroxy-3-(4-phenylpiperazinyl)propoxy]-3,4-dihydrocarbostyril monohydrochloride] | 1.12 | 7.4 ± 2.7 | 
O=C1CCc2c(OCC(O)CN3CCN(c4ccccc4)CC3)cccc2N1Cc1ccccc1 (stereo not shown) [Compound 8, 1-Benzyl-5-[2-hydroxy-3-(4-phenylpiperazinyl)propoxy]-3,4-dihydrocarbostyril monohydrochloride] | 0.0158 | 7.5 ± 3.3 | 
Cc1ccc(N2CCN(CCCCOc3cccc4c3CCC(=O)N4)CC2)cc1 [Compound 10, 5-{4-[4-(4-Methylphenyl)piperazinyl]butoxy}-3,4-dihydrocarbostyril] | 1.26 | 7.9 ± 3.7 | 
C=CCN1C(=O)CCc2c(OCC(O)CN3CCN(c4ccc(C)cc4)CC3)cccc21 (stereo not shown) [Compound 11, 1-Allyl-5-{2-hydroxy-3-[4-(4-methylphenyl)piperazinyl]propoxy}-3,4-dihydrocarbostyril] | 0.617 | 6.8 ± 2.2 | 
O=C1CCc2ccc(OCCCN3CCN(c4ccccc4)CC3)cc2N1Cc1ccccc1 [Compound 12, 1-Benzyl-7-[3-(4-phenylpiperazinyl)propoxy]-3,4-dihydrocarbostyril] | 6.17 | 7.5 ± 3.5 | 
Cc1cc(=O)[nH]c2cc(OCCCN3CCN(c4ccccc4)CC3)ccc12 [Compound 13, 4-Methyl-7-[3-(4-phenylpiperazinyl)propoxy]carbostyril] | 0.407 | 8.1 ± 2.7 | 
O=C1CCc2ccc(OCCCN3CCN(Cc4ccccc4)CC3)cc2N1 [Compound 14, 7-[3-(4-Benzylpiperazinyl)propoxy]-3,4-dihydrocarbostyril] | 0.794 | 7.5 ± 4.3 | 
Cc1ccc(N2CCN(CCCOc3ccc4c(c3)NC(=O)CC4)CC2)cc1 [Compound 15, 7-{3-[4-(4-Methylphenyl)piperazinyl]propoxy}-3,4-dihydrocarbostyril] | 0.331 | 12.7 ± 3.5 | 
O=C1CCc2ccc(OCCCN3CCN(c4ccc(Cl)cc4)CC3)cc2N1 [Compound 16, 7-{3-[4-(4-Chlorophenyl)piperazinyl]propoxy}-3,4-dihydrocarbostyril] | 0.234 | 11.4 ± 5.6 | 
CC1CN(CCCOc2ccc3c(c2)NC(=O)CC3)CCN1c1ccc(Cl)cc1 (stereo not shown) [Compound 18, 7-{3-[3-Methyl-4-(4-chlorophenyl)piperazinyl]propoxy}-3,4-dihydrocarbostyril dihydrochloride] | 2.19 | 8.4 ± 2.5 | 
O=C1CCc2cccc(OCCCN3CCN(c4ccccc4)CC3)c2N1 [Compound 19, 8-[3-(4-Phenylpiperazinyl)propoxy]-3,4-dihydrocarbostyril] | 10.2 | 9.3 ± 3.5 | 
CC(=O)OC(COc1cccc2c1CCC(=O)N2)CN1CCN(c2ccccc2)CC1 (stereo not shown) [Compound 20, 5-[2-Acetyloxy-3-(4-phenylpiperazinyl)propoxy]-3,4-dihydrocarbostyril] | 1.23 | 9.8 ± 3.7 | 
COc1cc(C(=O)OC(COc2cccc3c2CCC(=O)N3)CN2CCN(c3ccccc3)CC2)cc(OC)c1OC (stereo not shown) [Compound 21, 5-[2-(3,4,5-Trimethoxybenzoyloxy)-3-(4-phenylpiperazinyl)propoxy]-3,4-dihydrocarbostyril] | 0.912 | 8.1 ± 3.9 | 
COc1ccccc1N1CCN(CCCOc2ccc3ccc(=O)[nH]c3c2)CC1 [Compound 22, 7-{3-[4-(2-Methoxyphenyl)piperazinyl]propoxy}-carbostyril dihydrochloride] | 11.7 | 10.4 ± 4.1 | 
CC(C)N1C(=O)CCc2ccc(OCCCN3CCN(c4ccccc4)CC3)cc21 [Compound 23, 1-(2-Propyl)-7-[3-(4-phenylpiperazinyl)propoxy]-3,4-dihydrocarbostyril dihydrochloride] | 0.589 | 7.6 ± 4.2 | 
O=C1CCc2ccc(OCCCN3CCN(c4cccc(F)c4)CC3)cc2N1 [Compound 24, 7-{3-[4-(3-Fluorophenyl)piperazinyl]propoxy}-3,4-dihydrocarbostyril] | 0.257 | 11.6 ± 6.7 | 
CC(COc1ccc2c(c1)NC(=O)CC2)CN1CCN(c2ccccc2)CC1 (stereo not shown) [Compound 25, 7-[2-Methyl-3-(4-phenylpiperazinyl)propoxy]-3,4-dihydrocarbostyril] | 0.617 | 7.8 ± 3.3 | 
O=c1cc(OCCCN2CCN(c3ccccc3)CC2)c2ccccc2[nH]1 [Compound 26, 4-[3-(4-Phenylpiperazinyl)propoxy]carbostyril] | 2.19 | 8.5 ± 3.7 | 
O=c1cc(-c2ccccc2)c2ccc(OCCCN3CCN(c4ccccc4)CC3)cc2[nH]1 [Compound 27, 4-Phenyl-7-[3-(4-phenylpiperazinyl)propoxy]carbostyril] | 0.977 | 7.8 ± 3.2 | 
CCCCCCN1C(=O)CCc2ccc(OCCCN3CCN(c4ccccc4)CC3)cc21 [Compound 38, 1-Hexyl-7-[3-(4-phenylpiperazinyl)propoxy)]-3,4-dihydrocarbostyril dihydrochloride] | 1.17 |  | 
CCCC(C)C1(CC)C(=O)NC(=O)NC1=O (stereo not shown) [Pentobarbital, reference compound] |  |  | Anesthesia increasing activity ([2]; 0.5 mg/kg): 5.3 ± 2.6 min; Anesthesia increasing activity ([2]; 1 mg/kg): 4.9 ± 3.5 min; Anesthesia increasing activity ([2]; 2 mg/kg): 6.3 ± 2.3 min; Anesthesia increasing activity ([2]; 4 mg/kg): 8.1 ± 3.1 min
